Measurements published in patent publication US20100113550A1, “New Crystal Forms” (BIAL - PORTELA AND CA, S.A., priority 2006, published 2010).
Read-outs that look alike come from different tables or passages of the source.

Experiments:
Format in all cases: physicochemical
[1] = Approximate solubilities (solvent added until a solution forms)
Text: Approximate solubilities of compound 1, Form A in aqueous mixtures containing high concentrations of organic solvents are given in Table 1. [table]

[2] = RH stability: storage at controlled relative humidity or drying, checked by XRPD and for deliquescence
Text: Form A samples were stored at lower relative humidities of approximately 9-11, 23 and 32% RH and analyzed by XRPD and Karl-Fischer titration analysis after four weeks (Tables 30 and 31). The samples appeared to be Form A by XRPD. […] Note that the water content in the samples at 23 and 32% RH was slightly higher compared to the initial batch of Form A.
Form X samples were stored at relative humidities of approximately 43, 75 and 90% RH and analyzed by XRPD and Karl-Fischer titration analysis after five weeks (Tables 34 and 35).

[3] = Coulometric Karl Fischer titration for water determination
Procedure: Coulometric Karl Fischer (KF) analysis for water determination was performed using a Mettler Toledo DL39 Karl Fischer titrator. Samples were placed in the KF titration vessel containing approximately Hydranal—Coulomat AD and mixed for 60 seconds to ensure dissolution. The sample was then titrated by means of a generator electrode which produces iodine by electrochemical oxidation: 2I−=>I2+2e. Three replicates were obtained to ensure reproducibility. A NIST-traceable water standard (Hydranal Water Standard 10.0) was analyzed to check the operation of the coulometer. Data were collected and analyzed using LabX Pro Titration v2.10.000.

[4] = RH stability: storage at controlled relative humidity or drying, checked by XRPD and for deliquescence; remark: listed apart in the source
[5] = Interconversion studies of Forms A and C (slurries, XRPD)
Procedure: A slurry of compound 1, Form A, was prepared in a given solvent and loaded on an orbit shaker at either ambient or elevated temperature for at least 1 day. The liquid phase of the slurry was drawn off with a pipette and filtered through a 0.2-μm filter. A slurry containing compound 1 forms A and C was prepared using the filtered liquid phase from the Form A slurry. The mixture was then loaded on an orbit shaker in a sealed vial at either ambient or elevated temperature for 1 or 7 days. The solids were isolated by vacuum filtration or by drawing the liquid phase off with a pipette and allowing the solids to air dry at ambient conditions prior to analysis. The resulting Forms were characterised by XRPD.

[6] = acetone:water 99:1, hydrochloride

Cl.NCCc1c[nH]c(=S)n1[C@H]1COc2c(F)cc(F)cc2C1 [Amorphous, (R)-5-(2-Aminoethyl)-1-(6,8-difluorochroman-3-yl)-1,3-dihydroimidazole-2-thione hydrochloride]
solubility ([1]; 2,2,2-trifluoroethanol, 50 °C, organic solvent or mixture, 2,2,2-trifluoroethanol, 50° C., read-out: Solubility (approximate) at elevated temperature): 8 mg/mL
Solubility (approximate) ([1]; 2,2,2-trifluoroethanol, hydrochloride): 8 mg/mL
Solubility (approximate) ([1]; acetone, hydrochloride): 49 mg/mL
Solubility (approximate) ([1]; acetonitrile): <1 mg/mL
Solubility compared with the other forms (in words) ([1]; comparison between forms, listed as Amorphous material, hydrochloride): higher solubilities in most organic solvents and water compared to Forms A, B, and C
solubility ([1]; ethanol, 53 °C, organic solvent or mixture, ethanol, 53° C., read-out: Solubility (approximate) at elevated temperature): 11 mg/mL
Solubility (approximate) ([1]; ethanol, hydrochloride): 10 mg/mL
Solubility (approximate) ([1]; ethyl acetate): <1 mg/mL
Solubility (approximate) ([1]; iso-propanol, hydrochloride): 16 mg/mL
Solubility (approximate) ([1]; methanol, hydrochloride): 50 mg/mL
Solubility (approximate) ([1]; methyl ethyl ketone, hydrochloride): 64 mg/mL
solubility ([1]; methyl iso-butyl ketone, organic solvent or mixture, methyl iso-butyl ketone, read-out: Solubility (approximate)): < 1 mg/mL
Solubility (approximate) ([1]; tetrahydrofuran (THF), hydrochloride): 100 mg/mL
Solubility (approximate) ([1]; water, hydrochloride): 36 mg/mL

Cl.NCCc1c[nH]c(=S)n1[C@H]1COc2c(F)cc(F)cc2C1 [Form A, (R)-5-(2-Aminoethyl)-1-(6,8-difluorochroman-3-yl)-1,3-dihydroimidazole-2-thione hydrochloride]
solubility ([1]; 1,4-dioxane:water 99:1, organic solvent or mixture, 1,4-dioxane:water 99:1, read-out: Solubility (approximate)): < 24 mg/mL
solubility ([1]; acetone:water 90:10, organic solvent or mixture, acetone:water 90:10 (9:1), read-out: Solubility (approximate)): > 23 mg/mL
Solubility (approximate) [1, 6]: 1 mg/mL
solubility ([1]; acetonitrile:water 90:10, organic solvent or mixture, acetonitrile:water 90:10 (9:1), read-out: Solubility (approximate)): > 23 mg/mL
solubility ([1]; acetonitrile:water 95:5, organic solvent or mixture, acetonitrile:water 95:5, read-out: Solubility (approximate)): < 23 mg/mL
solubility ([1]; ethanol:water 90:10, organic solvent or mixture, ethanol:water 90:10 (9:1), read-out: Solubility (approximate)): > 21 mg/mL
solubility ([1]; ethanol:water 99:1, organic solvent or mixture, ethanol:water 99:1, read-out: Solubility (approximate)): < 25 mg/mL
Observations ([2]; ~23% RH, 4 weeks): looks dry
Observations ([2]; ~32% RH, 4 weeks): looks dry
% water ([3]; ~9-11% RH, 11 days): 1.70%
Moles of water ([3]; ~9-11% RH, 11 days): 0.33 mol
% water ([3]; ~23% RH, 4 weeks): 2.96%
Moles of water ([3]; ~23% RH, 4 weeks): 0.59 mol
% water ([3]; ~32% RH, 4 weeks): 3.24%
Moles of water ([3]; ~32% RH, 4 weeks): 0.65 mol
Stability at relative humidity ([4]; 31% relative humidity, after two weeks): stable
Stability at relative humidity ([4]; 43% relative humidity, after five days): stable
Form conversion under high laboratory humidity ([4]; typically 43% to 90% relative humidity, within 1 day to 2 weeks): converts to Form B

Cl.NCCc1c[nH]c(=S)n1[C@H]1COc2c(F)cc(F)cc2C1 [Form B, (R)-5-(2-Aminoethyl)-1-(6,8-difluorochroman-3-yl)-1,3-dihydroimidazole-2-thione hydrochloride]
Solubility (approximate) [1, 6]: <29 mg/mL
Solubility (approximate) ([1]; acetone, hydrochloride): 2 mg/mL
Solubility (approximate) ([1]; acetonitrile:water 95:5, hydrochloride): <27 mg/mL
Solubility (approximate) ([1]; ethanol:water 99:1, hydrochloride): <28 mg/mL
Solubility (approximate) ([1]; ethanol, hydrochloride): 4 mg/mL
Solubility (approximate) ([1]; methanol, hydrochloride): 15 mg/mL
Solubility by kind of solvent (in words) ([1]; organic solvents and aqueous mixtures, hydrochloride): higher solubilities in aqueous solvent mixtures compared to organic solvents
Stability under high relative humidities ([2]; high relative humidities, long periods of time): remain stable
Change in the water content on storage ([3]; after 2 days, 3 weeks and 8 weeks at both 75 and 90% RH): No significant changes
% water ([3]; ~55% RH, 8 days): 5.34%
Moles of water ([3]; ~55% RH, 8 days): 1.1 mol
% water ([3]; ~75% RH, 3 weeks): 6.02%
Moles of water ([3]; ~75% RH, 3 weeks): 1.24 mol
% water ([3]; ~75% RH, 8 weeks): 6.12%
Moles of water ([3]; ~75% RH, 8 weeks): 1.26 mol
% water ([3]; ~75% RH, 2 days): 6.23%
Moles of water ([3]; ~75% RH, 2 days): 1.28 mol
% water ([3]; ~90% RH, 3 weeks): 5.99%
Moles of water ([3]; ~90% RH, 3 weeks): 1.23 mol
% water ([3]; ~90% RH, 8 weeks): 6.46%
Moles of water ([3]; ~90% RH, 8 weeks): 1.33 mol
% water ([3]; ~90% RH, 2 days): 6.70%
Moles of water ([3]; ~90% RH, 2 days): 1.39 mol
Stability at relative humidity ([4]; 90% relative humidity): stable
Deliquescence ([4]; 90% relative humidity, after 10 days): no deliquescence was observed
RH stability, XRPD patterns ([4]; after 2 days, 3, 7 and 8 weeks at both 75 and 90% RH): did not change
Form conversion upon desorption (drying) ([4]; drying): convert back to Form A
Weight change ([4]; ~55% RH, 8 days): 10.7 mg
Weight change, % ([4]; ~55% RH, 8 days): 9.5%
Observations ([4]; ~55% RH, 8 days (Table 32)): looks dry
Observations ([4]; ~55% RH, 8 days (Table 33)): looks dry
Observations ([4]; ~75% RH, 3 weeks (Table 32)): looks dry
Observations ([4]; ~75% RH, 3 weeks (Table 33)): looks dry
Observations ([4]; ~75% RH, 7 weeks): looks dry
Observations ([4]; ~75% RH, 8 weeks (Table 32)): looks dry
Observations ([4]; ~75% RH, 8 weeks (Table 33)): looks dry
Weight change ([4]; ~75% RH, 2 days): 11.0 mg
Weight change, % ([4]; ~75% RH, 2 days): 4.5%
Observations ([4]; ~90% RH, 3 weeks (Table 32)): looks dry
Observations ([4]; ~90% RH, 3 weeks (Table 33)): looks dry
Observations ([4]; ~90% RH, 7 weeks): looks dry
Observations ([4]; ~90% RH, 8 weeks (Table 32)): looks dry
Observations ([4]; ~90% RH, 8 weeks (Table 33)): looks dry
Weight change ([4]; ~90% RH, 2 days): 11.6 mg
Weight change, % ([4]; ~90% RH, 2 days): 4.6%

Cl.NCCc1c[nH]c(=S)n1[C@H]1COc2c(F)cc(F)cc2C1 [Form X, (R)-5-(2-Aminoethyl)-1-(6,8-difluorochroman-3-yl)-1,3-dihydroimidazole-2-thione hydrochloride]
Observations ([2]; 90% RH, 5 weeks (Table 34)): looks dry
Form conversion at high relative humidity ([2]; 90% RH, after 4 days and 5 weeks): converted to Form B
% water ([3]; 43% RH, 5 weeks): 5.52%
Moles of water ([3]; 43% RH, 5 weeks): 1.13 mol
% water ([3]; 75% RH, 5 weeks): 8.74%
Moles of water ([3]; 75% RH, 5 weeks): 1.85 mol
% water ([3]; 90% RH, 5 weeks): 6.47%
Moles of water ([3]; 90% RH, 5 weeks): 1.34 mol
Observations ([4]; 43% RH, 5 weeks (Table 34)): looks dry
Observations ([4]; 75% RH, 5 weeks (Table 34)): looks dry
Change by XRPD on drying ([4]; after 6 days and 2 weeks of drying at approximately 70° C.): did not change
Observations ([4]; ~43% RH, 5 weeks (Table 35)): looks dry
Observations ([4]; ~43% RH, 7 days): looks dry
Weight change ([4]; ~43% RH, 7 days): 1.2 mg
Weight change, % ([4]; ~43% RH, 7 days): 3.4%
Observations ([4]; ~75% RH, 5 weeks (Table 35)): looks dry
Observations ([4]; ~75% RH, 7 days): looks dry
Weight change ([4]; ~75% RH, 7 days): 2.4 mg
Weight change, % ([4]; ~75% RH, 7 days): 6.0%
Observations ([4]; ~90% RH, 5 weeks (Table 35)): looks dry
Weight change ([4]; ~90% RH, 1 day): 2.3 mg
Weight change, % ([4]; ~90% RH, 1 day): 5.6%
Observations ([4]; ~90% RH, 7 days): looks dry
Weight change ([4]; ~90% RH, 7 days): 0.9 mg
Weight change, % ([4]; ~90% RH, 7 days): 2.1%

Cl.NCCc1c[nH]c(=S)n1[C@H]1COc2c(F)cc(F)cc2C1 [Forms A and C, (R)-5-(2-Aminoethyl)-1-(6,8-difluorochroman-3-yl)-1,3-dihydroimidazole-2-thione hydrochloride]
Form resulting from interconversion slurry ([5]; 1-day slurries at room temperature, ethanol and acetone:water 99:1): mixture of Forms C and B, with Form B as a minor component
Form resulting from interconversion slurry ([5]; acetone:water 99:1, 40° C., 1-day slurry): mixture of Forms C and A, with Form A as a minor component
Form resulting from interconversion slurry ([5]; after one week, ambient temperature and 40° C.): Form C
Form resulting from interconversion slurry ([5]; ethanol, 40° C., 1-day slurry): Form C
